From ChEMBL document CHEMBL1201862, “PubChem BioAssay data set” (2004)
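Protocol summary: plate cells (96-well), add compound at 5 concentrations, incubate 48 h, interpolate endpoints linearly. GI50 = concentration required for 50% inhibition of growth.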 Activity calls are given as the source filed them. No stated cut-off is given here; in the data, active = GI50 up to about 1.1 µM and inactive = higher.

Tests used:
Assay in all cases: inhibition of tumour cell growth, NCI panel, 48 h
KM12 = tested on: KM12
786-0 = tested on: 786-0
M14 = tested on: M14
A498 = tested on: A498
HCT-116 = tested on: HCT-116
NCI-H23 = tested on: NCI-H23
Hs-578T = tested on: Hs-578T
HCT-15 = tested on: HCT-15
SK-MEL-5 = tested on: SK-MEL-5
NCI-H226 = tested on: NCI-H226
SK-MEL-28 = tested on: SK-MEL-28
RPMI-8226 = tested on: RPMI-8226
SK-OV-3 = tested on: SK-OV-3
SK-MEL-2 = tested on: SK-MEL-2
OVCAR-3 = tested on: OVCAR-3
Malme-3M = tested on: Malme-3M
SNB-19 = tested on: SNB-19
EKVX = tested on: EKVX
CCRF-CEM = tested on: CCRF-CEM
SF-268 = tested on: SF-268
RXF 393 = tested on: RXF 393
HOP-92 = tested on: HOP-92
K562 = tested on: K562
DU-145 = tested on: DU-145
U-251 = tested on: U-251
MDA-MB-435 = tested on: MDA-MB-435
IGROV-1 = tested on: IGROV-1
SF-295 = tested on: SF-295
LOX IMVI = tested on: LOX IMVI
UACC-62 = tested on: UACC-62
CAKI-1 = tested on: CAKI-1
HL-60 = tested on: HL-60
OVCAR-5 = tested on: OVCAR-5
HOP-62 = tested on: HOP-62
MCF7 = tested on: MCF7
ACHN = tested on: ACHN
OVCAR-4 = tested on: OVCAR-4
COLO 205 = tested on: COLO 205
A549 = tested on: A549
UACC-257 = tested on: UACC-257
MDA-MB-231 = tested on: MDA-MB-231
UO-31 = tested on: UO-31
TK-10 = tested on: TK-10
OVCAR-8 = tested on: OVCAR-8
MDA-N = tested on: MDA-N
MOLT-4 = tested on: MOLT-4
PC-3 = tested on: PC-3
T47D = tested on: T47D
SF-539 = tested on: SF-539
SW-620 = tested on: SW-620
NCI-H522 = tested on: NCI-H522
HCC 2998 = tested on: HCC 2998
HT-29 = tested on: HT-29
NCI/ADR-RES = tested on: NCI/ADR-RES
SN12C = tested on: SN12C
NCI-H460 = tested on: NCI-H460
SR = tested on: SR

CC(C)C1SCc2nc3ccccc3n21 (stereo not given) was tested, and the GI50 (KM12) was 17.8 µM (inactive), the GI50 (786-0) was 84.9 µM (inactive) and the GI50 (M14) was 33.4 µM (inactive). For the same compound, the GI50 (A498) was 30.1 µM (inactive), the GI50 (HCT-116) was 30.6 µM (inactive) and the GI50 (NCI-H23) was 25.9 µM (inactive). For the same compound, the GI50 (Hs-578T) was 36.1 µM (inactive), the GI50 (HCT-15) was 50.1 µM and the GI50 (SK-MEL-5) was 16.4 µM (inactive). The GI50 (NCI-H226) was < 0.01 µM (active), the GI50 (SK-MEL-28) was 68.1 µM (inactive) and the GI50 (RPMI-8226) was 31.5 µM (inactive). For the same compound, the GI50 (SK-OV-3) was > 100 µM (inactive), the GI50 (SK-MEL-2) was 29.8 µM (inactive) and the GI50 (OVCAR-3) was 39.8 µM (inactive). For the same compound, the GI50 (Malme-3M) was 37.2 µM (inactive), the GI50 (SNB-19) was 51.8 µM (inactive) and the GI50 (EKVX) was 32.4 µM (inactive). The GI50 (CCRF-CEM) was 34.8 µM (inactive), the GI50 (SF-268) was 64.3 µM (inactive) and the GI50 (RXF 393) was 39.6 µM (inactive). The GI50 (HOP-92) was 16.3 µM (inactive), the GI50 (K562) was 34.5 µM (inactive) and the GI50 (DU-145) was 91.4 µM (inactive). For the same compound, the GI50 (U-251) was 51.4 µM (inactive), the GI50 (MDA-MB-435) was 28.8 µM (inactive) and the GI50 (IGROV-1) was 24.4 µM (inactive). For the same compound, the GI50 (SF-295) was 30.5 µM (inactive), the GI50 (LOX IMVI) was 35.4 µM (inactive) and the GI50 (UACC-62) was 35.1 µM (inactive). The GI50 (CAKI-1) was 40.1 µM (inactive), the GI50 (HL-60) was 43 µM (inactive) and the GI50 (OVCAR-5) was 77.3 µM (inactive). For the same compound, the GI50 (HOP-62) was 50.8 µM (inactive), the GI50 (MCF7) was 13.9 µM (inactive) and the GI50 (ACHN) was 19.7 µM (inactive). For the same compound, the GI50 (OVCAR-4) was 27.4 µM (inactive), the GI50 (COLO 205) was 12.7 µM (inactive) and the GI50 (A549) was 37.9 µM (inactive). The GI50 (UACC-257) was 32.8 µM (inactive), the GI50 (MDA-MB-231) was 24.2 µM (inactive) and the GI50 (UO-31) was 44.8 µM (inactive). The GI50 (TK-10) was 38.5 µM (inactive), the GI50 (OVCAR-8) was 40.2 µM (inactive) and the GI50 (MDA-N) was 38.9 µM (inactive). The GI50 (MOLT-4) was 20 µM (inactive), the GI50 (PC-3) was 13.2 µM (inactive) and the GI50 (T47D) was 58.1 µM (inactive). The GI50 (SF-539) was 38.2 µM (inactive), the GI50 (SW-620) was 65.8 µM (inactive) and the GI50 (NCI-H522) was 71.3 µM (inactive). For the same compound, the GI50 (HCC 2998) was 78 µM (inactive), the GI50 (HT-29) was 40.4 µM (inactive) and the GI50 (NCI/ADR-RES) was 29.4 µM (inactive). The GI50 (SN12C) was 21.8 µM (inactive) and the GI50 (NCI-H460) was 46.3 µM (inactive).
For CC(NC(=O)Cc1ccc(OP(=O)(OCc2ccc([N+](=O)[O-])o2)N(C)CCCCCl)cc1)c1ccc(OCC2CCCCC2)c(C(N)=O)c1 (stereo not given), the GI50 (KM12) was 2.4 µM (inactive), the GI50 (786-0) was 2.92 µM (inactive) and the GI50 (M14) was 2.12 µM (inactive). For the same compound, the GI50 (A498) was 3.01 µM (inactive), the GI50 (HCT-116) was 1.85 µM (inactive) and the GI50 (NCI-H23) was 2.08 µM (inactive). For the same compound, the GI50 (Hs-578T) was 1.92 µM (inactive), the GI50 (HCT-15) was 2.39 µM and the GI50 (SK-MEL-5) was 1.6 µM (inactive). For the same compound, the GI50 (NCI-H226) was 2.48 µM (inactive), the GI50 (SK-MEL-28) was 1.65 µM (inactive) and the GI50 (RPMI-8226) was 0.574 µM (active). The GI50 (SK-OV-3) was 3.08 µM (inactive), the GI50 (SK-MEL-2) was 2.26 µM (inactive) and the GI50 (OVCAR-3) was 1.66 µM (inactive). The GI50 (Malme-3M) was 1.77 µM (inactive), the GI50 (SNB-19) was 3.3 µM (inactive) and the GI50 (CCRF-CEM) was 0.906 µM (active). For the same compound, the GI50 (SF-268) was 2.22 µM (inactive), the GI50 (RXF 393) was 1.99 µM (inactive) and the GI50 (K562) was 2.77 µM (inactive). The GI50 (DU-145) was 2.8 µM (inactive), the GI50 (U-251) was 2.14 µM (inactive) and the GI50 (MDA-MB-435) was 1.89 µM (inactive). For the same compound, the GI50 (IGROV-1) was 1.91 µM (inactive), the GI50 (SF-295) was 2.24 µM (inactive) and the GI50 (LOX IMVI) was 1.74 µM (inactive). For the same compound, the GI50 (UACC-62) was 1.74 µM (inactive), the GI50 (CAKI-1) was 2.91 µM (inactive) and the GI50 (HL-60) was 2.22 µM (inactive). For the same compound, the GI50 (OVCAR-5) was 3.01 µM (inactive), the GI50 (HOP-62) was 2.65 µM (inactive) and the GI50 (MCF7) was 2.52 µM (inactive). For the same compound, the GI50 (ACHN) was 3.56 µM (inactive), the GI50 (OVCAR-4) was 2.16 µM (inactive) and the GI50 (COLO 205) was 1.63 µM (inactive). For the same compound, the GI50 (A549) was 1.87 µM (inactive), the GI50 (UACC-257) was 1.67 µM (inactive) and the GI50 (MDA-MB-231) was 2.08 µM (inactive). The GI50 (UO-31) was 2.58 µM (inactive), the GI50 (TK-10) was 3.22 µM (inactive) and the GI50 (OVCAR-8) was 3.6 µM (inactive). For the same compound, the GI50 (MDA-N) was 1.88 µM (inactive), the GI50 (MOLT-4) was 1.52 µM (inactive) and the GI50 (PC-3) was 2.88 µM (inactive). The GI50 (T47D) was 1.18 µM (inactive), the GI50 (SF-539) was 2.02 µM (inactive) and the GI50 (SW-620) was 3.45 µM (inactive). For the same compound, the GI50 (NCI-H522) was 2.25 µM (inactive), the GI50 (HCC 2998) was 1.35 µM (inactive) and the GI50 (SR) was 1.48 µM (inactive). For the same compound, the GI50 (HT-29) was 1.39 µM (inactive), the GI50 (NCI/ADR-RES) was 4.5 µM (inactive) and the GI50 (SN12C) was 1.96 µM (inactive). For the same compound, the GI50 (NCI-H460) was 2.79 µM (inactive).
In the case of Cc1cc(=O)[nH]c(-n2[nH]c(C)c(CCO)c2=O)n1, the GI50 (KM12) is reported as > 100 µM (inactive), the GI50 (786-0) is reported as > 100 µM (inactive) and the GI50 (M14) is reported as > 100 µM (inactive). For the same compound, the GI50 (A498) was > 100 µM (inactive), the GI50 (HCT-116) was > 100 µM (inactive) and the GI50 (NCI-H23) was > 100 µM (inactive). For the same compound, the GI50 (Hs-578T) was > 100 µM (inactive), the GI50 (HCT-15) was greater than 100 µM and the GI50 (SK-MEL-5) was > 100 µM (inactive). For the same compound, the GI50 (NCI-H226) was > 100 µM (inactive), the GI50 (SK-MEL-28) was > 100 µM (inactive) and the GI50 (RPMI-8226) was > 100 µM (inactive). The GI50 (SK-OV-3) was > 100 µM (inactive), the GI50 (SK-MEL-2) was > 100 µM (inactive) and the GI50 (OVCAR-3) was > 100 µM (inactive). The GI50 (Malme-3M) was > 100 µM (inactive), the GI50 (SNB-19) was > 100 µM (inactive) and the GI50 (EKVX) was > 100 µM (inactive). The GI50 (CCRF-CEM) was > 100 µM (inactive), the GI50 (SF-268) was > 100 µM (inactive) and the GI50 (RXF 393) was > 100 µM (inactive). The GI50 (K562) was > 100 µM (inactive), the GI50 (DU-145) was > 100 µM (inactive) and the GI50 (U-251) was > 100 µM (inactive). For the same compound, the GI50 (MDA-MB-435) was > 100 µM (inactive), the GI50 (IGROV-1) was > 100 µM (inactive) and the GI50 (SF-295) was > 100 µM (inactive). The GI50 (LOX IMVI) was > 100 µM (inactive), the GI50 (UACC-62) was > 100 µM (inactive) and the GI50 (CAKI-1) was > 100 µM (inactive). The GI50 (HL-60) was > 100 µM (inactive), the GI50 (OVCAR-5) was > 100 µM (inactive) and the GI50 (HOP-62) was > 100 µM (inactive). The GI50 (MCF7) was > 100 µM (inactive), the GI50 (ACHN) was > 100 µM (inactive) and the GI50 (OVCAR-4) was > 100 µM (inactive). For the same compound, the GI50 (COLO 205) was > 100 µM (inactive), the GI50 (A549) was > 100 µM (inactive) and the GI50 (UACC-257) was > 100 µM (inactive). The GI50 (MDA-MB-231) was > 100 µM (inactive), the GI50 (UO-31) was > 100 µM (inactive) and the GI50 (TK-10) was > 100 µM (inactive). For the same compound, the GI50 (OVCAR-8) was > 100 µM (inactive), the GI50 (MDA-N) was > 100 µM (inactive) and the GI50 (PC-3) was > 100 µM (inactive). For the same compound, the GI50 (T47D) was > 100 µM (inactive), the GI50 (SF-539) was > 100 µM (inactive) and the GI50 (SW-620) was > 100 µM (inactive). For the same compound, the GI50 (NCI-H522) was > 100 µM (inactive), the GI50 (HCC 2998) was > 100 µM (inactive) and the GI50 (HT-29) was > 100 µM (inactive). For the same compound, the GI50 (NCI/ADR-RES) was > 100 µM (inactive), the GI50 (SN12C) was > 100 µM (inactive) and the GI50 (NCI-H460) was > 100 µM (inactive).
